Literature values, collected in patent publication US10357535B2, “Daptomycin formulations and uses thereof” (priority 2012, dated 2019).

Assays:
[1] = tested on: MRSA; conditions: in less than one hour
[2] = tested on: MSSA; conditions: in less than one hour

CCCCCCCCCC(=O)NC(Cc1c[nH]c2ccccc12)C(=O)NC(CC(N)=O)C(=O)NC(CC(=O)O)C(=O)NC1C(=O)NCC(=O)NC(CCCN)C(=O)NC(CC(=O)O)C(=O)NC(C)C(=O)NC(CC(=O)O)C(=O)NCC(=O)NC(CO)C(=O)NC(C(C)CC(=O)O)C(=O)NC(CC(=O)c2ccccc2N)C(=O)OC1C (centres unmarked) [daptomycin, Daptomycin]
bacteria dead [1]: greater than 99.9% | bacteria dead [2]: greater than 99.9%
